# Values of other authors, collected in patent US20120237901A1, “Denture Adhesive Remover for Intraoral and Extraoral Use” (priority 2011, published 2012).
# What was measured:
# bacteria = conditions: 5% solution of acetic acid in water; reportedly
# mold = conditions: 5% solution of acetic acid in water; reportedly
smiles,measurement,setting,value
CC(=O)O [acetic acid],effective against bacteria,bacteria,99.9%
same,effective against mold,mold,90%
